Measured values taken from patent US20250049776A1, “AUTOPHAGY INDUCING COMPOUNDS AND USES THEREOF, IN PARTICULAR FOR A SYSTEMIC TREATMENT OF DISEASES AND CONDITIONS” (Samsara Therapeutics Inc., priority 2021, published 2025).

Columns and labels:
Type in all cases: cell-based
[1] = tested on: SH-SY5Y cells; assay: Acidic vesicle formation in SH-SY5Y cells (LysoTracker Deep Red); conditions: 24 hours
Method: This is evidence for significant stimulation of autophagy by this compound under these conditions. A brief description of the procedure is outlined here: • Day 1: Cells were seeded at 15K cells/well in the middle 60 wells of 6×96 well Cellvis imaging plates • Day 2: Media was replaced with 90 μl of DMEM/F12 (+10% FBS/1% P/S) containing NucBlue Live and the cells were treated with 10 μl of compound (10× concentrated) in triplicate for 24 hours. • Day3: Treatment was removed and cells were incubated for 30 minutes with LysoTracker™ Deep Red dye. Cells were washed twice with media and immediately imaged on EVOS M7000 at x20 (6 images per well, 30 minutes imaging time/plate). Images were analysed using Celleste Image analysis software.

[2] = tested on: Human osteosarcoma U20S cells; assay: Assay to measure lysosome and autolysosome formation (acidic vesicle formation, LysoView/LysoTracker staining); conditions: for activation at 0.8 µM: Homo sapiens, U2OS cells, concentration of 0.8 μM, read-out: Activity (percentage increase in acidic vesicle formation over the DMSO-treated control), Table 2; for increase in acidic vesicle formation: U20S cells, relative to DMSO-treated control (10 μM)
Summary of the method: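 U2OS cells treated with compounds in DMSO for 24 h, then stained 45 min at 37 °C with 1× LysoView 633 or 50 nM LysoTracker Deep Red, with Hoechst nuclear counterstain. Live-cell fluorescence imaging at 37 °C; acidic vesicle formation judged against DMSO-treated control.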

[3] = tested on: U2OS cell line stabling expressing RFP-eGFP-hLC3b; assay: Tandem reporter assay (autophagic flux, RFP-only puncta); conditions: Homo sapiens, RFP-only puncta as percentage of DMSO-treated control, 24 hours; for activity at 1 µM: read-out: Autolysosome % DMSO activity (compound concentration of 1 μM); for activity at 10 µM: read-out: Autolysosome % DMSO activity (compound concentration of 10 μM)
Method: Selected compounds of this invention were also assessed for their ability to stimulate autophagy using a U20S cell line stabling expressing RFP-eGFP-hLC3b (a tandem reporter cell line). During the process of autophagy, the cargo to be degraded is first enveloped by organelles called autophagosomes. These autophagosomes then fuse with lysosomes, causing them to become acidified and their digestive enzymes to become activated. The term “autophagic flux” is used to represent the dynamic process of autophagy: autophagic flux refers to the whole process of autophagy, including autophagosome formation, maturation, fusion with lysosomes, subsequent breakdown and the release of macromolecules back into the cytosol (Zhang X J, Chen S, Huang K X, Le W D. Why should autophagic flux be assessed? Acta Pharmacol Sin. 2013 May; 34(5): 595-9. doi: 10.1038/aps.2012.184. Epub 2013 Mar. 11). Compounds that stimulate autophagic flux stimulate the dynamic process of autophagy (the whole process of autophagy).
LC3b is a protein found in the membrane of autophagosomes which has been used to generate genetic reporters of autophagy in cells. In these systems a tandem fusion of LC3b is engineered with two fluorescent proteins of different wavelengths: one which is acid sensitive (for example eGFP, which fluoresces green) and the other which is acid insensitive (for example RFP, which fluoresces red). Cells expressing RFP-eGFP-hLC3b can be examined using fluorescent microscopy: the autophagosomes present will fluoresce in both channels (either yellow in an overlay of both channels or puncta that are present in both the individual red and green channels) but the autolysosomes present will fluoresce in the RFP (red) channel only. Using a fluorescent microscope, the number of autophagosomes and autolysosomes can be counted, allowing for the monitoring of both the induction of autophagy (total puncta count) and the rate of autophagic flux (ratio of red-only to red-and-green puncta). The influence of small molecules on autophagy induction and flux can be assessed using this system by comparison to a non-treated control.
Representative Procedure: Human osteosarcoma U2OS cells stably expressing RFP-eGFP-hLC3b were seeded (10,000 cells/well) into a 96-well glass-bottom plate (Cell Carrier Ultra, Perkin Elmer) in DMEM Glutamax media (Gibco) supplemented with 10% Fetal Bovine Serum (FBS) and antibiotics (100 u/ml penicillin, 100 μg/ml streptomycin, Invitrogen), then incubated overnight in a humified atmosphere at 37° C. and 5% CO2. The cells were then treated with the compounds of interest, dissolved in DMSO, in a duplicated 5- or 10-point dose-response. 8 wells were treated with an equivalent volume of DMSO, 4 with 0.3 μM torin-1 as a positive control (MCE) and 4 wells with 0.4 μM torin-1 plus 0.2 μM bafilomycin (MCE) as a control for flux inhibition. The cells were returned to the incubator and the treatment continued for 24 hours. After treatment, the media was aspirated off and the cells fixed with a solution of 4% formaldehyde+1% glutaraldehyde (Sigma) in dPBS (plus magnesium and calcium, Gibco).
Fixation was allowed to proceed for 15 minutes at room temperature then the fixative solution discarded and replaced with PBS (Gibco) plus Hoescht 33342 ([…], Sigma). After 30 minutes the plates were imaged on an Opera Phenix confocal microscope (Perkin-Elmer) using a 40× water objective, collecting using DAPI, mCherry and GFP channels. Cells were detected based upon the staining of their nuclei with DAPI using the Harmony image analysis software (Perkin-Elmer) and the number of autophagosomes (GFP and RFP puncta) and autolysosomes (RFP only puncta) per cell were counted using the spot picking function within the software.

Structure (SMILES)	Fold change at compound concentration of 0.8 μM (acidic vesicle formation relative to DMSO-treated control) [1]	Fold change at compound concentration of 10 μM (acidic vesicle formation relative to DMSO-treated control) [1]	activation at 0.8 µM [2] [%]	increase in acidic vesicle formation [2]	activity at 1 µM [3] [%]	activity at 10 µM [3] [%]
CC(C)N(C(=O)c1ccc(-c2cnn(-c3ccccc3)c2)[nH]1)[C@H]1CCNC1 [Compound 314, 5-(1-phenyl-1H-pyrazol-4-yl)-N-(propan-2-yl)-N-[(3S)-pyrrolidin-3-yl]-1H-pyrrole-2-carboxamide]	2.0	14.3	> 100			
CC(C)N(C(=O)c1ccc(-c2cnn(-c3ccccc3)c2)[nH]1)[C@@H]1CCNC1 [Compound 313, 5-(1-phenyl-1H-pyrazol-4-yl)-N-(propan-2-yl)-N-[(3R)-pyrrolidin-3-yl]-1H-pyrrole-2-carboxamide]	2.0	13.2	> 100			
CC(C)N(C(=O)c1ccc(-c2cnn(-c3ccc(F)cc3)c2)[nH]1)C1CCNCC1 [Compound 310, 5-[1-(4-fluorophenyl)-1H-pyrazol-4-yl]-N-(piperidin-4-yl)-N-(propan-2-yl)-1H-pyrrole-2-carboxamide]	1.9	4.5		only a slight increase		
CC(C)N(C(=O)c1csc(-c2cnn(-c3ccccc3)c2)n1)[C@H]1CCNC1 [Compound 311, 2-(1-phenyl-1H-pyrazol-4-yl)-N-(propan-2-yl)-N-[(3S)-pyrrolidin-3-yl]-1,3-thiazole-4-carboxamide]	2.3	3.5	50 to 100			
CN(C(=O)c1csc(-c2cnn(-c3ccccc3)n2)n1)[C@@H]1CCNC1 [Compound 363, N-methyl-2-(2-phenyl-2H-1,2,3-triazol-4-yl)-N-[(3R)-pyrrolidin-3-yl]-1,3-thiazole-4-carboxamide]					171	
CC(C)N(C(=O)c1csc(-c2cnn(C(C)(C)C)c2)n1)[C@H]1CCNC1 [Compound 391, 2-(1-tert-butyl-1H-pyrazol-4-yl)-N-(propan-2-yl)-N-[(3S)-pyrrolidin-3-yl]-1,3-thiazole-4-carboxamide]					109	161
Cc1ccccc1-n1cc(-c2nc(C(=O)N(C(C)C)[C@H]3CCNC3)cs2)cn1 [Compound 397, 2-[1-(2-methylphenyl)-1H-pyrazol-4-yl]-N-(propan-2-yl)-N-[(3S)-pyrrolidin-3-yl]-1,3-thiazole-4-carboxamide]					115	191
CC(C)N(C(=O)c1csc(-c2cnn(-c3ccccc3)c2)n1)C1CC2(CNC2)C1 [Compound 319, N-{2-azaspiro[3.3]heptan-6-yl}-2-(1-phenyl-1H-pyrazol-4-yl)-N-(propan-2-yl)-1,3-thiazole-4-carboxamide]	2.4	2.7	30 to 50			
CC(C)N(C(=O)c1csc(-c2cnn(C(C)C)c2)n1)C1CCNCC1 [Compound 393, N-(piperidin-4-yl)-N-(propan-2-yl)-2-[1-(propan-2-yl)-1H-pyrazol-4-yl]-1,3-thiazole-4-carboxamide]					106	110
CC(C)N(C(=O)c1csc(-c2cnn(-c3ccccc3)c2)n1)C1CCNCC1F (centres unmarked) [Compound 383, N-(3-fluoropiperidin-4-yl)-2-(1-phenyl-1H-pyrazol-4-yl)-N-(propan-2-yl)-1,3-thiazole-4-carboxamide]					98	194
CC(C)N(C(=O)c1csc(-c2cnn(-c3ccccc3)c2)n1)C1C[C@H]2CNC[C@H]2C1 (stereo partly drawn) [Compound 320, N-[(3aR,6aS)-octahydrocyclopenta[c]pyrrol-5-yl]-2-(1-phenyl-1H-pyrazol-4-yl)-N-(propan-2-yl)-1,3-thiazole-4-carboxamide]	1.9	3.3		only a slight increase		
CC(C)N(C(=O)c1csc(-c2cnn(C)c2)n1)C1CCNCC1 [Compound 392, 2-(1-methyl-1H-pyrazol-4-yl)-N-(piperidin-4-yl)-N-(propan-2-yl)-1,3-thiazole-4-carboxamide]					97	109
